{"source": "paper PMC11345841", "about": "“Exploring 2-Sulfonylpyrimidine Warheads as Acrylamide Surrogates for Targeted Covalent Inhibition: A BTK Story” (Journal of Medicinal Chemistry, 2024)", "key": {"[1]": {"biological_target": "T1, ABL1(Y253F)-phosphorylated (Homo sapiens, UniProt P00519, Y253F)", "T1 construct": "purchased Eurofins DiscoverX KINOMEscan (scanTK)", "assay": "KINOMEscan ScanTK", "type": "binding"}, "[2]": {"biological_target": "T2, EGFR(S752-I759del) (Homo sapiens, UniProt P00533, DEL752-759)", "T2 construct": "purchased Eurofins DiscoverX KINOMEscan (scanTK)", "T2 sequence (P00533 with tags, fused parts or gaps DEL752-759 limits assumed)": "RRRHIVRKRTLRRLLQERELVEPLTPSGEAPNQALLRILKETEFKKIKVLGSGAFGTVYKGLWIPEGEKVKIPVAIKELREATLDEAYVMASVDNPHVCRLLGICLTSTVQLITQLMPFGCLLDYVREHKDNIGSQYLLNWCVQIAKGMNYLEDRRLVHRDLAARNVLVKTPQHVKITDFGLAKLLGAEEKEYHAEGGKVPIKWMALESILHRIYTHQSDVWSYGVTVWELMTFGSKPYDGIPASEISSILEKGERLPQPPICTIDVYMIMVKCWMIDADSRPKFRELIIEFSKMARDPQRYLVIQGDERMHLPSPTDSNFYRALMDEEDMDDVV", "assay": "KINOMEscan ScanTK", "type": "binding"}, "[3]": {"biological_target": "T3, BTK (Homo sapiens, UniProt Q06187)", "T3 construct": "purchased Eurofins DiscoverX KINOMEscan (scanTK)", "T3 sequence (Q06187 whole entry)": "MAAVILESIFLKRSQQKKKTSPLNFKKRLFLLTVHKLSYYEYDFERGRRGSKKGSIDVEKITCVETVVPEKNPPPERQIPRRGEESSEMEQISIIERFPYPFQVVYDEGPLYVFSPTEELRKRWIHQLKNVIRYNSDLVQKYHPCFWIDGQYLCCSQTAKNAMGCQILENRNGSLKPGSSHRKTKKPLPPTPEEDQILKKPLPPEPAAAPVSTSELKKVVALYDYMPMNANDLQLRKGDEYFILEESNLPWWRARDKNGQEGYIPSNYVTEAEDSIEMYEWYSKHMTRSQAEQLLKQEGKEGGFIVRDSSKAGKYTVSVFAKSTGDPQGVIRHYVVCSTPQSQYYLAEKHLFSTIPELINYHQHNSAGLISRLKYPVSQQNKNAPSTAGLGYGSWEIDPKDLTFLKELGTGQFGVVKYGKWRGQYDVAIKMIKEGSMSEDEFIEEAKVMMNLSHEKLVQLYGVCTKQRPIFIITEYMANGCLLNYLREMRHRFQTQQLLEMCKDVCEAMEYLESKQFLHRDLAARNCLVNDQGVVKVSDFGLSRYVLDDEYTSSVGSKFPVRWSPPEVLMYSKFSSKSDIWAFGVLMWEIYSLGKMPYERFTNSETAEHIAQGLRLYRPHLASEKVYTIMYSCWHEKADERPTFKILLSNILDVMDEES", "assay": "KINOMEscan ScanTK", "type": "binding", "conditions": "for remaining binding at 1 µM: BTK"}, "[4]": {"biological_target": "T4, VEGFR2 (Homo sapiens, UniProt P35968)", "T4 construct": "purchased Eurofins DiscoverX KINOMEscan (scanTK)", "T4 sequence (P35968 20-1356)": "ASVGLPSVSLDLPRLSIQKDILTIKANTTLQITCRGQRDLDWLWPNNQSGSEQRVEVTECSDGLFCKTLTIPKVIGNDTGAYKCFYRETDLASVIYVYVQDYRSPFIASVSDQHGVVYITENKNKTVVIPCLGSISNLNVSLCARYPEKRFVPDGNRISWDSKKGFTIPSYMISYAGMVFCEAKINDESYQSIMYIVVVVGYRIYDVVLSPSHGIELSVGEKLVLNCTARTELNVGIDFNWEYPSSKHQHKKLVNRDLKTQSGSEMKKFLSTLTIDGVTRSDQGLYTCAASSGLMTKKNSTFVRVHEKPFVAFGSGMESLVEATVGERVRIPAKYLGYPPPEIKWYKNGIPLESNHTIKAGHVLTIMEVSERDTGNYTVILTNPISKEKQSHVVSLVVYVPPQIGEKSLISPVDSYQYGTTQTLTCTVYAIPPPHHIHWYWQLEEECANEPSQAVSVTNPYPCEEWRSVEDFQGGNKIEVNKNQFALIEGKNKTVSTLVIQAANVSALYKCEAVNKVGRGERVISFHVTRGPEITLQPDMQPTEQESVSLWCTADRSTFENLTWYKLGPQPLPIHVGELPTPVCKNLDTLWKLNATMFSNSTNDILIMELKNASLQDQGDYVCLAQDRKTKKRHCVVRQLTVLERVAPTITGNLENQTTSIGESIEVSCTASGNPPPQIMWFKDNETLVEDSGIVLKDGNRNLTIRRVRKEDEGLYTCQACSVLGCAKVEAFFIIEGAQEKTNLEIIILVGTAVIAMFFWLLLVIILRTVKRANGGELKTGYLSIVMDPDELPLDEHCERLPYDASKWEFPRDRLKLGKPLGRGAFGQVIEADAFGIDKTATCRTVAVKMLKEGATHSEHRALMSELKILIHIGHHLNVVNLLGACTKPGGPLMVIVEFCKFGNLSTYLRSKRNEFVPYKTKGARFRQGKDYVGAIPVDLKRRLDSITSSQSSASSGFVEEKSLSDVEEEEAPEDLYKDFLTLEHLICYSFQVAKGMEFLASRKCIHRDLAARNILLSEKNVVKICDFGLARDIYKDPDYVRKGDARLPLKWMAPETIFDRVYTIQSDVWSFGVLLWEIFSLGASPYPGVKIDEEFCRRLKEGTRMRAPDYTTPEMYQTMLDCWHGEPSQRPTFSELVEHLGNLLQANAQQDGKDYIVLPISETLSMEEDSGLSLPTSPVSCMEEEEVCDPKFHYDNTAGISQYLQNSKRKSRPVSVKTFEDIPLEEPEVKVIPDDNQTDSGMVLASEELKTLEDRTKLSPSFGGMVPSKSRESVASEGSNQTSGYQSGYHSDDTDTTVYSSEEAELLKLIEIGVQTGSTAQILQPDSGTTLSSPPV", "assay": "KINOMEscan ScanTK", "type": "binding"}, "[5]": {"biological_target": "T5, PDGFRB (Homo sapiens, UniProt P09619)", "T5 construct": "purchased Eurofins DiscoverX KINOMEscan (scanTK)", "T5 sequence (P09619 33-1106)": "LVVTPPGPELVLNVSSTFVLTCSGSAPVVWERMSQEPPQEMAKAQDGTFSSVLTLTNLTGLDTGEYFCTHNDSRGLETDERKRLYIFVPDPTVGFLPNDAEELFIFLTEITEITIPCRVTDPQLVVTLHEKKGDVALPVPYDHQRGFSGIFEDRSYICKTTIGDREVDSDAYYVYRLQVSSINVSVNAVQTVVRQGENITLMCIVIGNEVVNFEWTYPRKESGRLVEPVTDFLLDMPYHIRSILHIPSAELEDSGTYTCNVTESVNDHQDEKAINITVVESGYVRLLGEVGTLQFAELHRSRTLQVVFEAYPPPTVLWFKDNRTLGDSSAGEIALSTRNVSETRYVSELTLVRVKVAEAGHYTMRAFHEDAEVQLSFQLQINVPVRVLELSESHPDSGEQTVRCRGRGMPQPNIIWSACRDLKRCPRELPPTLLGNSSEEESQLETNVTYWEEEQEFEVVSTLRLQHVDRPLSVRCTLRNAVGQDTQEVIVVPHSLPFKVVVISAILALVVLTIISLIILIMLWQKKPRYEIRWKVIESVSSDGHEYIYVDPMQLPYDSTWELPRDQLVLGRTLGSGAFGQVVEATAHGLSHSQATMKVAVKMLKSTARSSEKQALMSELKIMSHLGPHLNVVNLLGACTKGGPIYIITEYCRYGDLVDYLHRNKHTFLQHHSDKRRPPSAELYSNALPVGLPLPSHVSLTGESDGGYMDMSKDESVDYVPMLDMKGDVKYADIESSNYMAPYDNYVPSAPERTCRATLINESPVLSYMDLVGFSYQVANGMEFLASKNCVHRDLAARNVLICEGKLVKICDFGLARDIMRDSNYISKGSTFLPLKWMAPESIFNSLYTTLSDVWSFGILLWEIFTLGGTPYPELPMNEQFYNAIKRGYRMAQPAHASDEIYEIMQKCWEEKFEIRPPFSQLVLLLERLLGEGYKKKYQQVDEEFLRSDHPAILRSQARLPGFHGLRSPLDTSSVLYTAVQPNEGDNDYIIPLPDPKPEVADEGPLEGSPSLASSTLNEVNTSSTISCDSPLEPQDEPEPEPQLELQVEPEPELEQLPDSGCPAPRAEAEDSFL", "assay": "KINOMEscan ScanTK", "type": "binding"}, "[6]": {"system": "TMD8 cells", "assay": "RNA-seq gene expression", "conditions": "8d versus Ibrutinib"}}, "note": "Where two headings read alike, the source gives them in different places.", "data": [{"smiles": "CNC(=O)c1cnc(S(C)(=O)=O)nc1N1CCCC(n2nc(-c3ccc(Oc4ccccc4)cc3)c3c(N)ncnc32)C1", "note": "(stereo not shown) [Compound 8d, 4-(3-(4-Amino-3-(4-phenoxyphenyl)-1H-pyrazolo[3,4-d]pyrimidin-1-yl)piperidin-1-yl)-N-methyl-2-(methylsulfonyl)pyrimidine-5-carboxamide]", "values": [{"measurement": "difference in %Control from compound Ib at 1 µM", "setting": "[1]; @1000nM", "result": 3, "unit": "%"}, {"measurement": "remaining binding at 1 µM", "setting": "[1]; @1000nM, read-out: %Control", "result": 80, "unit": "%"}, {"measurement": "remaining binding at 1 µM", "setting": "[1]; read-out: %Control @1000nM", "result": 80, "unit": "%"}, {"measurement": "difference in %Control versus compound Ib at 1 µM", "setting": "[2]; @1000nM", "result": 67, "unit": "%"}, {"measurement": "remaining binding at 1 µM", "setting": "[2]; @1000nM, read-out: %Control", "result": 69, "unit": "%"}, {"measurement": "remaining binding at 1 µM", "setting": "[2]; read-out: %Control @1000nM", "result": 69, "unit": "%"}, {"measurement": "remaining binding at 1 µM", "setting": "[3]; @1000nM, read-out: % difference (compound - Ib %Control)", "result": 0, "unit": "%"}, {"measurement": "remaining binding at 1 µM", "setting": "[3]; @1000nM, read-out: %Control", "result": 0, "unit": "%"}, {"measurement": "remaining binding at 1 µM", "setting": "[3]; read-out: %Control @1000nM", "result": 0, "unit": "%"}, {"measurement": "inhibition at 1 µM", "setting": "[3]; ScanTK, 1 μM", "result": "> 99", "unit": "%"}, {"measurement": "remaining binding at 1 µM", "setting": "[4]; @1000nM, read-out: %Control", "result": 88, "unit": "%"}, {"measurement": "remaining binding at 1 µM", "setting": "[4]; read-out: %Control @1000nM", "result": 88, "unit": "%"}, {"measurement": "remaining binding at 1 µM", "setting": "[5]; @1000nM, read-out: %Control", "result": 77, "unit": "%"}, {"measurement": "remaining binding at 1 µM", "setting": "[5]; read-out: %Control @1000nM", "result": 77, "unit": "%"}, {"measurement": "Expr Log Ratio", "setting": "[6]; ACTN4", "result": 0.022}, {"measurement": "Expr Log Ratio", "setting": "[6]; ACVR1C", "result": -0.029}, {"measurement": "Expr Log Ratio", "setting": "[6]; APC", "result": 0.064}, {"measurement": "Expr Log Ratio", "setting": "[6]; APOC1", "result": -0.164}, {"measurement": "Expr Log Ratio", "setting": "[6]; ARHGAP31", "result": 0.01}, {"measurement": "Expr Log Ratio", "setting": "[6]; ARNT2", "result": 0.044}, {"measurement": "Expr Log Ratio", "setting": "[6]; AURKA", "result": -0.004}, {"measurement": "Expr Log Ratio", "setting": "[6]; BLOC1S5", "result": -0.004}, {"measurement": "Expr Log Ratio", "setting": "[6]; BMPR2", "result": 0.081}, {"measurement": "Expr Log Ratio", "setting": "[6]; BRCA1", "result": 0.248}, {"measurement": "Expr Log Ratio", "setting": "[6]; BRD7", "result": 0.035}, {"measurement": "Expr Log Ratio", "setting": "[6]; BTRC", "result": 0.281}, {"measurement": "Expr Log Ratio", "setting": "[6]; CD80", "result": -0.429}, {"measurement": "Expr Log Ratio", "setting": "[6]; CDKN1A", "result": -0.127}, {"measurement": "Expr Log Ratio", "setting": "[6]; COL1A1", "result": -0.248}, {"measurement": "Expr Log Ratio", "setting": "[6]; CREBZF", "result": -0.251}, {"measurement": "Expr Log Ratio", "setting": "[6]; CREM", "result": -0.036}, {"measurement": "Expr Log Ratio", "setting": "[6]; CTR9", "result": 0.099}, {"measurement": "Expr Log Ratio", "setting": "[6]; CYB561A3", "result": -0.04}, {"measurement": "Expr Log Ratio", "setting": "[6]; DEF6", "result": 0.017}, {"measurement": "Expr Log Ratio", "setting": "[6]; DNM1L", "result": 0.002}, {"measurement": "Expr Log Ratio", "setting": "[6]; DTNBP1", "result": 0.278}, {"measurement": "Expr Log Ratio", "setting": "[6]; DTX1", "result": -0.178}, {"measurement": "Expr Log Ratio", "setting": "[6]; ECM1", "result": 0.54}, {"measurement": "Expr Log Ratio", "setting": "[6]; EHD1", "result": -0.044}, {"measurement": "Expr Log Ratio", "setting": "[6]; EIF2AK4", "result": 0.093}, {"measurement": "Expr Log Ratio", "setting": "[6]; EIF2B5", "result": -0.104}, {"measurement": "Expr Log Ratio", "setting": "[6]; ELAVL1", "result": -0.071}, {"measurement": "Expr Log Ratio", "setting": "[6]; ESR1", "result": -0.045}, {"measurement": "Expr Log Ratio", "setting": "[6]; ETS1", "result": 0.064}, {"measurement": "Expr Log Ratio", "setting": "[6]; FECH", "result": 0.061}, {"measurement": "Expr Log Ratio", "setting": "[6]; FGF2", "result": 0.272}, {"measurement": "Expr Log Ratio", "setting": "[6]; FGFR4", "result": -0.062}, {"measurement": "Expr Log Ratio", "setting": "[6]; FTO", "result": -0.134}, {"measurement": "Expr Log Ratio", "setting": "[6]; GLIS2", "result": -0.228}, {"measurement": "Expr Log Ratio", "setting": "[6]; GNB1", "result": 0.033}, {"measurement": "Expr Log Ratio", "setting": "[6]; GNB2", "result": -0.086}, {"measurement": "Expr Log Ratio", "setting": "[6]; GPI", "result": -0.003}, {"measurement": "Expr Log Ratio", "setting": "[6]; GPNMB", "result": 0.582}, {"measurement": "Expr Log Ratio", "setting": "[6]; GSTP1", "result": -0.086}, {"measurement": "Expr Log Ratio", "setting": "[6]; H1-2", "result": -0.09}, {"measurement": "Expr Log Ratio", "setting": "[6]; HDAC1", "result": -0.011}, {"measurement": "Expr Log Ratio", "setting": "[6]; HDAC8", "result": -0.281}, {"measurement": "Expr Log Ratio", "setting": "[6]; HNRNPAB", "result": -0.136}, {"measurement": "Expr Log Ratio", "setting": "[6]; HSF2", "result": -0.15}, {"measurement": "Expr Log Ratio", "setting": "[6]; HTATIP2", "result": 0.03}, {"measurement": "Expr Log Ratio", "setting": "[6]; IL1A", "result": 0.332}, {"measurement": "Expr Log Ratio", "setting": "[6]; ING1", "result": -0.221}, {"measurement": "Expr Log Ratio", "setting": "[6]; KDM6B", "result": -0.137}, {"measurement": "Expr Log Ratio", "setting": "[6]; LOX", "result": -0.113}, {"measurement": "Expr Log Ratio", "setting": "[6]; LOXL2", "result": 0.149}, {"measurement": "Expr Log Ratio", "setting": "[6]; MAPK8", "result": -0.028}, {"measurement": "Expr Log Ratio", "setting": "[6]; MAPK9", "result": 0.146}, {"measurement": "Expr Log Ratio", "setting": "[6]; MAPKAP1", "result": -0.077}, {"measurement": "Expr Log Ratio", "setting": "[6]; MDM4", "result": -0.082}, {"measurement": "Expr Log Ratio", "setting": "[6]; MED1", "result": -0.016}]}]}
